According to US10010629B2, “Compositions and methods for in vivo imaging” (The Regents of the University of California, priority 2010, dated 2018):
Entries after “also recorded” stand apart in the source; their conditions may differ.

Tests used:
3T3-L1-luc adipocytes = assay: Cell-based fatty acid uptake assay (bioluminescence), adipocytes; settings: BSA-bound, 0-100 μM (comparison at 20 μM, 30 min)
Protocol: (§1) Luciferase expressing cellular model (3T3-L1-Luc Cells): 3T3-L1 fibroblasts (ATCC) were stably transfected with the pGL4.51[luc2/CMV/Neo] vector (Promega). Clones with the highest level of luciferase expression were isolated and expanded.
Cell culture and treatment: 3T3-L1-luc fibroblasts were grown in DMEM containing 10% fetal bovine serum with 2 mM L-glutamine and 1% penicillin/streptomycin (DMEM/FBS). […] Differentiated cells were used in experiments on days 8-12 of differentiation.
(§2) Cell-based fatty acid uptake assays: 3T3-L1-luc adipocytes or fibroblasts were seeded into black-wall/clear-bottom-96-well plates (Costar) and treated with 100 μl of a fatty acid uptake buffer consisting of 0.1% BSA in Hank's balanced salt solution (HBSS) in addition to 2-100 μM of the compound. Plates were read immediately and luminescent images were acquired with a 5-minute exposure time back to back for 60 minutes. All cell-based assays utilized the same kinetic acquisition settings.

[1] = tested on: FFA-luc uptake by 3T3-L1 adipocytes; assay: FFA-SS-Luc competition assay; assay type: cell-based
Protocol: FFA-SS-Luc competition assay: 3T3-L1-luc adipocytes were seeded into black-wall/clear-bottom-96-well plates (Costar) and treated with 100 μl fatty acid uptake buffer including 20 μM FFA-luc and a titration of 0-2 mM oleate or methyl-oleate immediately prior to imaging.

L2G85 mice [2] = assay: BAT imaging after intraperitoneal injection; assay type: in vivo; settings: for signal from BAT (intact and excised) after intraperitoneal injection: i.p., 0.1% BSA in PBS, 30 min
Protocol: Intraperitoneal injection: Anesthetized mice received a 100 μl volume intraperitoneal injection of 200 μM FFA-luc or FFA-S-luc (0.014 mg) bound to 0.1% BSA in PBS immediately prior to imaging. Luminescent images were acquired with a 3-minute exposure back to back for 30-minutes.
BAT imaging: Anesthetized mice received 100 μl volume intraperitoneal injection of 200 μM FFA-luc (0.014 mg) immediately prior to imaging. Luminescent images were acquired with a 3-minute exposure back to back for 30-minutes. For BAT activation imaging, mice received intraperitoneal injections of the β-adrenergic stimulator CL316,243 at 1 mg/kg 20 minutes prior to the FFA-luc injection.

L2G85 mice [3] = assay: Intestinal uptake after oral gavage, bioluminescence imaging; assay type: in vivo; settings: for bioluminescent signal in the live animal after oral gavage: luciferase-expressing mice
Protocol: To translate the imaging technique described above to in vivo systems, L2G85 mice were utilized. L2G85 mice express luciferase throughout their bodies. Initial experiments focused on detection of intestinal FFA uptake using oral gavages of the FFA-luc compound. […] This is consistent with known fatty acid uptake localization and kinetics.
Gavage of FFA-luc and FFA-S-luc: Anesthetized mice received a 50 μl volume gavage of 300 μM FFA-luc or FFA-S-luc (0.01 mg) in a vehicle of 1:1 PEG 400 and propylene glycol. Mice were awake for 5 minutes post-gavage to stimulate peristalsis before they were re-anesthetized for imaging. Mice were under constant isoflurane administration in the IVIS Spectrum In Vivo Imager and luminescent images were acquired with a 5-minute exposure back to back for 60 minutes.
CT scans: Mice received a 100 μl volume gavage of 80 mg barium sulfate. After one hour, mice received a second barium sulfate gavage, immediately followed by a 50 μl volume gavage of 300 μM FFA-luc (0.01 mg) in a vehicle of 1:1 PEG 400 and propylene glycol. Mice were placed in a Mouse Imaging Shuttle Adaptor (Caliper Life Sciences) and luminescent images were acquired with a 5-minute exposure back to back for 60 minutes. Mice were then transferred to the Quantum FX μCT for CT imaging without disruption of position. Co-registration of luminescent and CT images were performed with Living Image software.

3T3-L1-luc fibroblasts = assay: Cell-based fatty acid uptake assay (bioluminescence), undifferentiated fibroblasts; settings: 20 μM FFA-luc, 30 min
Protocol: as §1
Cell culture and treatment: 3T3-L1-luc fibroblasts were grown in DMEM containing 10% fetal bovine serum with 2 mM L-glutamine and 1% penicillin/streptomycin (DMEM/FBS). A cell differentiation protocol was followed as previously described (Baldini et al., Cloning of a Rab3 isotype predominantly expressed in adipocytes. Proc Natl Acad Sci USA 89, 5049 (Jun. 1, 1992); Stahl et al., Insulin causes fatty acid transport protein translocation and enhanced fatty acid uptake in adipocytes. Dev Cell 2, 477 (2002)). […]
as §2, with “All cell-based assays utilized the same kinetic acquisition settings.” left out

L2G85 mice [4] = settings: mouse, in vivo
Protocol: (§3) To monitor uptake of FFA-luc by internal organs, FFA-luc was bound to the physiological carrier of fatty acids in the serum, i.e. albumin. As a control, animals were injected with an albumin luciferin mix.
(§4) Animal models: Transgenic mice ubiquitously expressing luciferase under control of the actin promoter were used.
(§5) Imaging equipment and software: All luminescent/photographic images were captured with the IVIS Spectrum (Caliper Life Sciences). Total flux (photons/sec) of regions of interest were calculated with the IVIS Living Image software. CT data was acquired with the Quantum FX μCT (Caliper Life Sciences).
(§6) Intravenous injection: Restrained mice received 100 μl volume tail vein injections of 20 μM FFA-luc or FFA-S-luc (0.0014 mg) bound to 0.1% bovine serum albumin (BSA) in phosphate buffered saline (PBS). Mice were immediately anesthetized and luminescent images with a 1-minute exposure were acquired.

[5] = tested on: FFA-luc uptake by 3T3-L1-luc adipocytes; assay: Insulin-mediated uptake of FFA-luc; assay type: cell-based; settings: 20 μM FFA-luc
Protocol: Insulin-mediated uptake of FFA-luc: 3T3-L1-luc adipocytes were seeded into black-wall/clear-bottom-96-well plates (Costar). One group of cells was serum starved in DMEM for 5 hours followed by the addition of […] fatty acid uptake buffer with 20 μM FFA-luc immediately prior to imaging. A second group of cells was treated with DMEM/fetal bovine serum (FBS) for 5 hours followed by the addition of 100 μl fatty acid uptake buffer with 20 μM FFA-luc and 1 ug/mL insulin immediately prior to imaging.

L2G85 mice [6] = assay: Uptake after intravenous injection (albumin-bound), bioluminescence imaging; settings: i.v., bound to/mixed with albumin
Protocol: as §3, §4, §5, §6

**Q.** With `COC(=O)CCCCCCCCCCCCCCCSSCCCOC(=O)Oc1ccc2nc(C3=N[C@@H](C(=O)O)CS3)sc2c1` [Me-FFA-luc, (S)-2-(6-((3-((16-methoxy-16-oxohexadecyl)disulfanyl)propoxy)carbonyloxy)benzo[d]thiazol-2-yl)-4,5-dihydrothiazole-4-carboxylic acid] as the compound, how does the “uptake by luciferase-expressing 3T3 L1 adipocytes (light signal / uptake rate)” value (shortened to “uptake … (light signal / uptake rate)”) (3T3-L1-luc adipocytes; listed as methyl ester of the FFA-luc) read?
**A.** slower, non-saturable uptake

**Q.** What about the “uptake … (light signal / uptake rate)” value (3T3-L1-luc adipocytes; listed as methyl-FFA-luc) of the same compound?
**A.** significantly lower uptake rates

**Q.** `CCCCCCCC/C=C\CCCCCCCC(=O)OC` [methyl-oleate] was tested. Which “competition with FFA-luc uptake by adipocytes” value ([1]; 20 μM FFA-luc, excess competitor (0-2 mM titration)) did it give?
**A.** did not compete and not

**Q.** Which “effect on compound 1 uptake by BAT” value (L2G85 mice [2]; CL316,243 1 mg/kg i.p.) does the source give for `C[C@H](Cc1ccc2c(c1)OC(C(=O)[O-])(C(=O)[O-])O2)NC[C@H](O)c1cccc(Cl)c1.[Na+].[Na+]` [CL316,243, reference compound] here?
**A.** highly reproducible and significant increase

**Q.** Which results are given for `O=C(O)CCCCCCCCCCCCCCCSSCCCOC(=O)Oc1ccc2nc(C3=N[C@@H](C(=O)O)CS3)sc2c1` [FFA-luc, (S)-2-(6-((3-((15-carboxypentadecyl)disulfanyl)propoxy)carbonyloxy)benzo[d]thiazol-2-yl)-4,5-dihydrothiazole-4-carboxylic acid]?
**A.** signal from BAT (intact and excised) after intraperitoneal injection (L2G85 mice [2]): robust light signal; uptake by luciferase-expressing 3T3 L1 adipocytes (light signal / uptake rate) (3T3-L1-luc adipocytes): robust, dose-dependent signal; signal from small intestine, excised GI tract after oral gavage (L2G85 mice [3]; ex vivo, small intestine / duodenum): robust signal; also recorded: strongest signal was generated by the proximal duodenum; signal from stomach and colon, excised GI tract after oral gavage (L2G85 mice [3]; ex vivo, stomach and colon): negative; bioluminescent signal in the live animal after oral gavage (L2G85 mice [3]): distinct signal emanating from an area consistent with the small intestine; also recorded: abdominal signal; uptake kinetics by undifferentiated fibroblast-like 3T3 L1 cells versus adipocytes (3T3-L1-luc fibroblasts): significantly lower; uptake by excised organs after tail vein injection (L2G85 mice [4]): taken up by several organs; light production of removed interscapular brown adipose tissue after injection (L2G85 mice [4]; iv): robust light production; photon emission from isolated heart after intravenous injection (L2G85 mice [4]; iv): high signal; photon emission from isolated liver after intravenous injection (L2G85 mice [4]; iv): low signal

**Q.** `CCCCCCCC/C=C\CCCCCCCC(=O)O` [oleate] was tested. Which IC50 ([1]; Mus musculus, 3T3-L1, read-out: IC50, inhibition of uptake of FFA-luc by 3T3-L1 adipocytes) did it give?
**A.** 17 µM

**Q.** How did the “effect on FFA-luc uptake by adipocytes” value [5] turn out when insulin was run?
**A.** stimulatory effect

**Q.** `O=C(O)[C@H]1CSC(c2nc3ccc(O)cc3s2)=N1` [luciferin, reference compound] was tested. Which “uptake … (light signal / uptake rate)” value (3T3-L1-luc adipocytes) did it give?
**A.** significantly lower uptake rates

**Q.** What about the “bioluminescent signal in the live animal after intravenous injection” value (L2G85 mice [6]) of the same compound?
**A.** very rapid, bright, and delocalized signal

**Q.** Which results are given for `O=C(O)CCCCCCCCCCCCCCCSCCCOC(=O)Oc1ccc2nc(C3=N[C@@H](C(=O)O)CS3)sc2c1` [FFA-S-luc, (S)-2-(6-((3-(15-carboxypentadecylthio)propoxy)carbonyloxy)benzo[d]thiazol-2-yl)-4,5-dihydrothiazole-4-carboxylic acid]?
**A.** signal from BAT (intact and excised) after intraperitoneal injection (L2G85 mice [2]): little or no signal; bioluminescent signal in the live animal after oral gavage (L2G85 mice [3]): weak and diffuse signal
